Data as given in patent EP0188647B1, “Acylated derivatives of cytidine-diphosphate-choline, process for their preparation and their therapeutic use” (NEOPHARMED S.p.A., priority 1985, dated 1986).

[1] = control experiment, oral, 20 µmoles/kg, after 30 minutes, intestinal level

Description: The required data refer to the distribution of radioactivity in the animal and also to structural identity of the radioactive molecular species present in some of the more significant biological samples (liver, brain, faeces, gastric and intestinal contents).
The scheme of extraction consents the recovery of three different classes of labelled metabolites: • 1) Hydrosoluble metabolites, subsequently analysed by HPLC. • 2) Metabolites with high molecular weights, proteins and nucleic acids, recovered by thermal denaturation in a hydroalcoholic environment. • 3) Lipids, subsequently purified by chromatography on silica.

Row | time of maximum uptake in the plasmatic component and in the organs (rat, in vivo, po) | total radioactivity, of that present in the administered dose (rat, in vivo, po) | SMILES | double labelled CDP-choline administered found at intestinal level [1] | radioactivity present in the dose found at intestinal level [1]
1 | – | – | C[N+](C)(C)CCOP(=O)(O)OP(=O)([O-])OC[C@H]1O[C@@H](n2ccc(N)nc2=O)[C@H](O)[C@@H]1O [CDP-choline, Cytidine-diphosphate-choline] | 0.2% | not more than 5%
2 | 5 h | 30% | CCCCC(=O)Nc1ccn([C@@H]2O[C@H](COP(=O)(O)OP(=O)([O-])OCC[N+](C)(C)C)[C@@H](OC(=O)CCCC)[C@H]2OC(=O)CCCC)c(=O)n1 [trivaleryl-CDP-choline, N4-valeryl-2',3'-di-O-valeryl-CDP-choline] | – | –
